Laboratory results reported in patent publication US8703424B2, “Predicting human developmental toxicity of pharmaceuticals using human stem-like cells and metabolomics” (Stemina Biomarker Discovery, Inc., priority 2010, dated 2014).

Assays:
hESCs = experiment: Arginine / ADMA fold change ratio (integrated EICs) in dosed hESCs vs controls; conditions: for Arg fold change/ADMA fold change: EIC areas, controls vs. dosed
Description: All tested chemicals were purchased from Sigma-Aldrich (St. Louis, Mo.). Cells were dosed with drugs at a concentration equivalent to their published serum circulating therapeutic dosages. Dosing was performed on hESCs in 6-well plates in triplicate, i.e. three wells per plate. The plates were dosed in triplicate, so there were a total of nine dosed wells. In parallel, there were nine “control” wells, in which hESCs were cultured with mTeSR1 containing no drug, and three wells containing Matrigel with mTeSR1 medium without hESCs that served as medium controls. Lastly, three wells of dosed medium controls were prepared, containing Matrigel, mTeSR1 and drug, but no hESCs (FIG. 1). These medium controls provided baseline mass spectral data. On the first day of dosage, the determined concentration of drug was dissolved in mTeSR1, and then 2.5 mL of this solution was added to each dosed well of hESCs. Each day, for four days, the medium was removed and new dosed medium was added. On the fourth day, the medium was removed and added to acetonitrile to make a 40% acetonitrile solution, as outlined in the Sample Preparation section below.
Mass spectrometry was performed using an Agilent QTOF LC/MS system consisting of a G6520AA QTOF high resolution mass spectrometer capable of exact mass MS and MS/MS. In order to facilitate separation of small molecules with a wide range of polarity and to allow increased retention of hydrophilic species, Hydrophilic Interaction Liquid Chromatography (Alpert 1990) was employed. Each sample was run for 30 minutes with the gradient shown in Table 3 at a flow rate of 0.5 mL/min, using 0.1% formic acid in water (Solvent A) and 0.1% formic acid in acetonitrile (Solvent B). Electrospray ionization was employed using a dual ESI source, with an Agilent isocratic pump continuously delivering an internal mass reference solution into the source at approx. 0.01 mL/min. The mass range of the instrument was set to 100-1700 Da. A Phenomenex Luna HILIC column with dimensions 3×100 mm 3 μm particle size was used and maintained at 30° C. 5 μl of each sample was injected. Data acquisition was performed with Agilent MassHunter using high-resolution exact mass conditions.
Valproate is known to cause neural tube defects (DiLiberti et al. 1984) while nitric oxide synthase activity is essential for neural tube closure (Nachmany et al. 2006).

WA09 hESCs [1] = experiment: LC-MS metabolomics: abundance changes of metabolites in hESCs dosed at circulating dose; type: cell-based, human
Description: (§1) These medium controls provided baseline mass spectral data.
(§2) The 2.5 mL of spent media per well from Example 1 was added to 1.67 mL acetonitrile to make a 40% acetonitrile solution. The acetonitrile acts to “quench” the spent media sample, slowing or halting many metabolic processes and aiding in precipitation of cellular proteins. Samples were either stored at −80° C. for later analysis, or for immediate analysis, 250 μL of the quenched solution was mixed with 250 μL of water, to a final concentration of 20% acetonitrile, then added to a 3 kDa molecular weight cut-off filter spin column (Microcon YM-3 Centrifugal Filter, Millipore, Billerica, Mass.). Each sample was then centrifuged in an IEC CL31R Multispeed Centrifuge (Thermo Scientific, Waltham, Mass.) at 13,000×g at 4° C. for 200 minutes. Following centrifugation, the flow-through was saved then dried for several hours in a Savant High Capacity Speedvac Plus Concentrator. The concentrated sample was then dissolved in 50 μL of 0.1% formic acid prior to LC-MS analysis.
(§3) 5 μl of each sample was injected.
(§4) Following LC-MS, chromatograms were inspected for reproducibility. LC-MS runs with total ion counts that vary by more than 25% were repeated to ensure that samples could be accurately compared. These runs were then used to create mass features that correspond to molecules detected across the different LC-MS runs. Mass features were extracted from the LC-MS data using MassHunter Qualitative Analysis software (Agilent Technologies). The following criteria were used as general guidelines, however some flexibility and optimization was needed. m/z values within the range of 75-1500, with a charge of +1 or −1, and a centroid height greater than 1000 were used to generate “mass features.” The mass peaks that pass these criteria were used to fit isotope and adduct (Na^+, K^+, and NH4^+) patterns corresponding to individual molecules, and to establish the abundance of each mass feature. The abundance is calculated by MassHunter software as the sum of the isotopic and adduct peaks that correspond to a single molecular feature. After data deconvolution, mass features showing at least two ions (e.g. (M^+H)^+ and (M^+H)^++1 or (M^+H)^+ and (M^+Na)^+) and an abundance value greater than 50000 for positive-ion mode data and 10000 in negative-ion mode data were included in the data set used for binning of the mass features.
The media represents a major factor in the experimental system, in that it contributes many peaks to mass spectra. This can be accounted for in a data dependent manner to select for mass feature bins, which are present at significant levels above the media. Mass feature bins present solely in the presence of cells (not detected in media) or with average abundance levels different than uncultured media were considered to be secreted, excreted, consumed, or identified metabolites.
The exact mass of the metabolite must be within 10 ppm of the known mass of the compound. 2) The retention time of the metabolite detected in the cell media must be within + or −30 seconds of a reference standard on which MS data had been acquired under the same conditions. The reference standards were dissolved in mTeSR media and prepared in exactly the same manner (described above) as the samples from the cells, including the addition of acetonitrile, Centricon centrifugal filtration, drying then dissolution in formic acid prior to LC-MS analysis. 3) The MS-MS fragmentation spectra of the metabolite detected in the cell media must be a reasonable match with that of the reference standard, including abundances and m/z values of the fragment ions. If published MS-MS spectra are available, the MS-MS spectra must also be a reasonable match.

[2] = system: WA09 human embryonic stem (hES) cells; experiment: PLS-DA prediction of teratogenicity from secretome of treated hES cells (Example 9); conditions: DevTox pharmaceutical
Description: These included 11 known teratogens and 11 known non-teratogens. The current model is based on the mean fold change (treatment versus its associated intra-experimental control) of 15 metabolites common among the secretome of hES cells treated with pharmaceutical agents and unknown chemical compounds.

WA09 hESCs [3] = experiment: Random forest prediction of teratogenicity from metabolomics of spent media of dosed hESCs; type: cell-based, human; conditions: for Predicted teratogenicity (random forest statistical model): blind study, model trained on TS1, 142 mass features, circulating dose
Description: WA09 hESCs, obtained from WiCell Research Institute (NIH National Stem Cell Bank, Madison, Wis.) were cultured in 6-well plates on Matrigel (BD Biosciences, San Jose, Calif.), in mTeSR1 medium (Stem Cell Technologies, Vancouver, BC) incubated at 37° C. under 5% CO2 in a Thermo Electron Form a Series II Water Jacket CO2 Incubator. hESCs were passaged every three or four days at a 1:3 or 1:6 seeding density for routine culture conditions. For dosing experiments, hESCs were passaged at a low density of 1:10 or 1:12 so that they would not require passaging during the […] dosing protocol. To passage hES cells, the StemPro® EZPassage™ disposable stem cell passaging tool (Invitrogen, Carlsbad, Calif.) was used to detach the cells from the wells. Detached cells were removed with a pipette and distributed to new Matrigel plates.
as §1, §2, §3, §4
Following feature selection by MassHunter, the data was further preprocessed by MassProfiler (Agilent) software which aligns mass features across multiple LC-MS data files. Mass features were generated for data from each drug treatment experiment (dosed and control) using the default alignment settings in MassProfiler with the requirement that a feature be present in at least 80% of the samples in one treatment. The mass feature datasets for each drug treatment experiment were further processed in a global manner using custom analysis scripts executed in the R statistical software environment. […]

[4] = high dose (H = 10x circulating dose)
[5] = low dose (L = 0.1x circulating dose)

| SMILES | Arg/ADMA Prediction (hESCs) | Arg fold change/ADMA fold change (hESCs) | Abundance of asymmetric dimethylarginine (ADMA) (WA09 hESCs [1]; drug-treated vs control) | Abundance of succinic acid (WA09 hESCs [1]; drug-treated vs control) | % Non (PLS-DA class probability non-teratogen) [2, 4] | % Ter (PLS-DA class probability teratogen) [2, 4] | Confidence (difference between class probabilities) [2, 4] | Prediction [2, 4] | % Non (PLS-DA class probability non-teratogen) [2, 5] | % Ter (PLS-DA class probability teratogen) [2, 5] | Confidence (difference between class probabilities) [2, 5] | Prediction [2, 5] | Predicted teratogenicity (random forest statistical model) (WA09 hESCs [3]) | Changes in metabolites on dosing (WA09 hESCs [1]) | Classification by the refined random forest model (FIG. 3) (WA09 hESCs [3]; 18-feature model, 26 drug treatment experiments) |
| --- | --- | --- | --- | --- | --- | --- | --- | --- | --- | --- | --- | --- | --- | --- | --- |
| CN(Cc1cnc2nc(N)nc(N)c2n1)c1ccc(C(=O)N[C@@H](CCC(=O)O)C(=O)O)cc1 [Methotrexate] | Ter | 2.54 | – | significant down regulation | 0.42 | 0.58 | 0.16 | Ter | 0.48 | 0.52 | 0.04 | Ter | – | – | – |
| Nc1ccn([C@@H]2O[C@H](CO)[C@@H](O)[C@@H]2O)c(=O)n1 [Cytosine Arabinoside] | Ter | 67.01 | – | significant down regulation | – | – | – | – | – | – | – | – | – | most profound changes in many metabolites | – |

Now from value to compound, other results behind:

| Arg/ADMA Prediction (hESCs) | SMILES | Arg fold change/ADMA fold change (hESCs) | Abundance of asymmetric dimethylarginine (ADMA) (WA09 hESCs [1]; drug-treated vs control) | Abundance of succinic acid (WA09 hESCs [1]; drug-treated vs control) | % Non (PLS-DA class probability non-teratogen) [2, 4] | % Ter (PLS-DA class probability teratogen) [2, 4] | Confidence (difference between class probabilities) [2, 4] | Prediction [2, 4] | % Non (PLS-DA class probability non-teratogen) [2, 5] | % Ter (PLS-DA class probability teratogen) [2, 5] | Confidence (difference between class probabilities) [2, 5] | Prediction [2, 5] | Predicted teratogenicity (random forest statistical model) (WA09 hESCs [3]) | Changes in metabolites on dosing (WA09 hESCs [1]) | Classification by the refined random forest model (FIG. 3) (WA09 hESCs [3]; 18-feature model, 26 drug treatment experiments) |
| --- | --- | --- | --- | --- | --- | --- | --- | --- | --- | --- | --- | --- | --- | --- | --- |
| Ter | CCCC(CCC)C(=O)O [Valproic Acid] | 2.11 | significant fold decrease | significant down regulation | – | – | – | – | – | – | – | – | – | – | – |
| Ter | NC(=O)N1c2ccccc2C=Cc2ccccc21 [Carbamazepine] | 1.12 | – | significant down regulation | 0.37 | 0.63 | 0.26 | Ter | 0.5 | 0.5 | 0 | Non | Ter | – | – |
| Ter | CO[C@H]1/C=C/O[C@@]2(C)Oc3c(C)c(O)c4c(O)c(c(/C=N/N5CCN(C)CC5)c(O)c4c3C2=O)NC(=O)/C(C)=C\C=C\[C@H](C)[C@H](O)[C@@H](C)[C@@H](O)[C@@H](C)[C@H](OC(C)=O)[C@@H]1C [Rifampicin] | 0.81 | – | – | 0.27 | 0.73 | 0.46 | Ter | 0.46 | 0.54 | 0.08 | Ter | Ter | – | misclassified as non-teratogens |
